Assay results reported in paper PMC12067350, “Discovery of Thieno[3,2‑b]pyridine-5-carboxamide and 2,3-Difluorobenzamide Negative Allosteric Modulators of Metabotropic Glutamate Receptor Subtype 5” (ACS Medicinal Chemistry Letters, 2025).
Entries after “also recorded” stand apart in the source; their conditions may differ. Read-outs that look alike come from different tables or passages of the source.

Tests used:
human mGlu5 [1] = target: T1, human mGlu5 (Homo sapiens, UniProt P41594); experiment: Calcium mobilization assay in human mGlu5-HEK293A cells (NAM, EC80 glutamate); format: cell-based; settings: for %Glumin: efficacy of the NAM to reduce an EC80 response of glutamate
T1 construct: expressed in transfected cells
T1 sequence (P41594 21-1212): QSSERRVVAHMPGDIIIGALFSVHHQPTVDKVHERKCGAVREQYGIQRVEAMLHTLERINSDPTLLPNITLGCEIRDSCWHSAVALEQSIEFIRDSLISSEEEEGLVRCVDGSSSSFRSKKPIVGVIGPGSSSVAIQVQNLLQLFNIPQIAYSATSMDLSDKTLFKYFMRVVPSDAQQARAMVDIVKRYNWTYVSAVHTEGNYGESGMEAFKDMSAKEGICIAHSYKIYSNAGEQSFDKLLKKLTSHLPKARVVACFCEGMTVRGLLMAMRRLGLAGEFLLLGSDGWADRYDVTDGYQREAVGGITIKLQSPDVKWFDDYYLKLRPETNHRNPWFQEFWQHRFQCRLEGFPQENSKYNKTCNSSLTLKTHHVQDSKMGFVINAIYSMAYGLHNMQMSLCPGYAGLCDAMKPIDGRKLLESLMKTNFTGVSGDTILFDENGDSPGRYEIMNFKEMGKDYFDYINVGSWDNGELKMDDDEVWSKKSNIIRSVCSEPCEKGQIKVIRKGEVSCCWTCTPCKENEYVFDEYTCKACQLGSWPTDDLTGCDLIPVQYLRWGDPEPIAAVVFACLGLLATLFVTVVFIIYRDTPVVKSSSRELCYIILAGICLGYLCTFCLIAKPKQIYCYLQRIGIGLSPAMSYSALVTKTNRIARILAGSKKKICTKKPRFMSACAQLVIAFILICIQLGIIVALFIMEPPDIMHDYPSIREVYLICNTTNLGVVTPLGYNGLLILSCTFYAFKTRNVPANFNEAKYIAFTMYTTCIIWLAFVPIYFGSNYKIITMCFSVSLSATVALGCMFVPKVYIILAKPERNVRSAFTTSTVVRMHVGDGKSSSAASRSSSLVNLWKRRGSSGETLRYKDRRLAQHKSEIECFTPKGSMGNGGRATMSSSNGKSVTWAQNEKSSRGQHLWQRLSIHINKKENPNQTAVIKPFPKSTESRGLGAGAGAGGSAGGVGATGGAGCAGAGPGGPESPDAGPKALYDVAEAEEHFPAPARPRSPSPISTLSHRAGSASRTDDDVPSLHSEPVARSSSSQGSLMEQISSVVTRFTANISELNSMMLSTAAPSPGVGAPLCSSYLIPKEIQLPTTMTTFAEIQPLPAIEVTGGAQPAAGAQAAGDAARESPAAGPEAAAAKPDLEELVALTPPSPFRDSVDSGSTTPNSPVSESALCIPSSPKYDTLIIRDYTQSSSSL

[2] = Intrinsic clearance in rat liver microsomes; format: in vitro ADME; settings: predicted hepatic clearance from in vitro rat microsomal data
Procedure: Intrinsic Clearance in Rat and Human Liver Microsomes
The in vitro intrinsic clearance (CL int) was investigated in commercially obtained hepatic microsomes from rat and human donors using the substrate depletion (i.e., loss-of-parent vs. time, or t 1/2 method) approach with analyte detection via liquid chromatography-tandem mass spectrometry (LC-MS/MS). For each species, mean %parent remaining values at each time point were calculated from replicates raw data (analyte:IS peak area ratios) and used to determine in vitro t 1/2 and CLint.
Experiments were carried out using a robot-assisted (TECAN model Evo 200). Compound was incubated (1 µM final concentration) in buffer (100 mM potassium phosphate pH 7.4 with 3 mM MgCl2) containing hepatic microsomes (0.5 mg/mL final concentration) from multiple species, discretely, at 37 °C under constant orbital shaking. After 5 minutes (pre-incubation), reactions were initiated by addition of nicotinamide adenine dinucleotide phosphate (NADPH, 1 mM final concentration). At selected time intervals (0, 3, 7, 15, 25, and 45 minutes) post-addition of NADPH, aliquots (50 µL) were taken and placed into a 96-shallow-well plate containing ice cold acetonitrile (150 µL) with carbamazepine (IS, 50 nM). The plates were then centrifuged (3000 rcf at 4 °C) for 10 minutes. The supernatants were transferred to a new 96-shallow-well daughter plate and diluted (1:1 v/v) with water (Milli-Q filtered). The plates were then sealed in preparation for LC-MS/MS analysis (see below).
Raw LC-MS/MS peak area data generated from the assay samples were used to construct natural log-transformed %parent remaining vs. time plots (using t = 0 minute post-NADPH addition sample data as starting point set to 100%). In vitro compound half-life (t 1/2) values were obtained using the following […]
k is the slope from linear regression analysis of the natural log-transformed data (using means from Where all replicates at each time point). Resulting t 1/2 values were then used to calculate hepatic CLint values according to the following equation and with the use of species-specific scale-up factors for liver weight (grams) per total body weight (kg):
CL = 0.693 x 1 mL incubation x 45 mg microsomes x a gram liver
int in vitro t1/2 0.5 mg microsomes 1 gram liver kg body wt aScale-up factors used are 45 (rat) and 20 (human).1
Predicted hepatic clearance (CLhep) was calculated using the following equation: […]
Qh represents hepatic blood flow (mL/min/kg): 21 for human, 70 for rat, and 90 for mouse.

[3] = Binding in plasma from human (equilibrium dialysis); format: in vitro ADME; settings: fraction unbound
Procedure: Binding in plasma from rat and human.
Determination of compounds’ fraction unbound (f u) in plasma from rat and human was conducted in vitro via equilibrium dialysis using HTDialysis membrane plates. Dialysis membranes (four paired strips per HTD assay) were hydrated as described by the manufacturer and inserted into the HTD plate, which was assembled and prepared for sample addition by the dispensing of blank buffer (DPBS, 100 µL/well) into the ‘top half’ of each membrane-split well. Each compound was diluted into plasma from each species (5 µM final concentration), which was aliquoted in triplicate to the ‘bottom half’ of the prepared HTD plate wells. The HTD plate was sealed and incubated for 6 hours at 37 °C. Following incubation, each well (both top and bottom halves) were transferred (20 µL) to the corresponding wells of a 96-shallow-well (V-bottom) plate. The daughter plates were then matrix-matched (buffer side wells received equal volume of plasma, and plasma side wells received equal volume of buffer), and extraction solution (120 µL; acetonitrile containing 50 nM carbamazepine as IS) was added to all wells of both daughter plates to precipitate protein and extract test article. The plates were then sealed and centrifuged (3500 rcf) for 10 minutes at ambient temperature. Supernatant (60 µL) from each well of the daughter plates was then transferred to the corresponding wells of new daughter plates (96-shallow-well, V bottom) containing water (Milli-Q, 60 µL/well), and the plates were sealed in preparation for LC-MS/MS analysis (see below). fu was calculated as (analyte to IS MS peak area ratio from Trans-buffer side) / (analyte to IS MS peak area ratio from Cis-plasma side). Mean values for each species were calculated from 3 replicates. […]
Mean values for each species were calculated from 3 replicates.

[4] = design: method as in PMID 31589885; settings: led to termination of trials; attributed to off-target MAO-B; cited from earlier work
[5] = literature, cited from earlier work
[6] = rat, cited from earlier work
[7] = design: method as in PMID 28530802; settings: NHP, 28-day study, AO metabolite accumulated after 14 days, nonmechanism based; cited from earlier work
[8] = cited from earlier work
[9] = design: method as in PMID 30446311; settings: cited from earlier work
human mGlu5 [10] = target: T1, human mGlu5; settings: previously published picolinamide series; read-out: hmGlu5 IC50; cited from earlier work
M1 = test system: M1; design: method as in PMID 37101980; settings: cited from earlier work
[11] = human mGlu5-HEK293A cells, EC80 fixed concentration of glutamate, n = 2 in triplicate
[12] = human mGlu5-HEK293A cells, EC80 fixed concentration of glutamate, n = 2 in triplicate, read-out: IC50

Row | Compound | %Glumin (human mGlu5 [1]; human mGlu5-HEK293A cells) [%] | pIC50 (human mGlu5 [1]; [11]) | IC50 (human mGlu5 [1]; [12]) [µM] | rat CLhep [2] [mL/min/kg] | human f u,plasma [3] | further results
1 | O=C(Nc1ccc(F)cn1)c1cc(O[C@@H]2CCOC2)c2sccc2n1 [19aB] | 2 | 7.22 | 0.061 | 55.1 | 0.008 | –
2 | Cc1cccc(NC(=O)c2cc(O[C@@H]3CCOC3)c3sccc3n2)n1 [19aD] | 2 | 7.66 | 0.022 | 57.5 | 0.005 | –
3 | O=C(Nc1nc(CF)cs1)c1cc(O[C@@H]2CCOC2)c2sccc2n1 [19aL] | 2 | 7.27 | 0.055 | 41.8 | 0.016 | –
4 | Cc1csc(NC(=O)c2cc(O[C@@H]3CCOC3)c3ccn(C)c3n2)n1 [19dA] | 2 | 7.04 | 0.093 | 52.3 | 0.006 | –
5 | Cc1csc(NC(=O)c2cc(OC3CC(C#N)C3)c3sccc3n2)n1 (centres unmarked) [22i] | – | – | – | 48.2 | 0.005 | –
6 | Cc1csc(NC(=O)c2cc(OC3CSC3)c3sccc3n2)n1 [22j] | 2 | 6.98 | 0.107 | 68.4 | 0.001 | –
7 | O=C(Nc1ccc(F)cn1)c1cc(O[C@@H]2CCOC2)cc(F)c1F [27cB] | 3 | 5.88 | 1.57 | – | – | IC50 (human mGlu5 [1]; in μM, read-out: hmGlu5 IC50): 1.6 µM
8 | O=C(Nc1ccc(F)cn1)c1cc(O[C@@H]2CCOC2)ncn1 [27eB] | – | – | – | – | – | IC50 (nM) (human mGlu5 [1]; [11]): inactive
9 | Cc1csc(NC(=O)c2cc(O[C@@H]3CCOC3)c3ccncc3n2)n1 [27gA] | 2 | 5.69 | 2.05 | – | – | IC50 (human mGlu5 [1]; in μM, read-out: hmGlu5 IC50): 2.1 µM
10 | O=C(Nc1ccc(F)cn1)c1cc(O[C@@H]2CCOC2)c2ccncc2n1 [27gB] | 3 | 5.76 | 1.78 | – | – | –
11 | N#Cc1cc(F)cc(-c2nc(-c3ccc(F)cn3)no2)c1 [AZD9272] | – | – | – | – | – | adverse effect in clinical trials [4]: psychosis-like symptoms
12 | O=C(c1ccc(OC(F)F)c(C#Cc2ccccn2)c1)N1Cc2cccnc2C1 [GRN-529] | – | – | – | – | – | glutathione conjugation to the alkyne [5]: extensive glutathione conjugation; toxicology finding ([5]; nonhuman primates, 8-week regulatory toxicology study): biliary epithelial hyperplasia; also recorded: hepatotoxicity observed
13 | Cc1csc(NC(=O)c2cc(F)cc(Oc3cncnc3)c2)n1 [VU0409106] | – | – | – | – | – | %F ([6]; in vivo): < 5%
14 | Cc1cc(Oc2cncnc2)cc(C(=O)Nc2ccc(F)cn2)n1 [compound 10, N-(5-Fluoropyridin-2-yl)-6-methyl-4-(pyrimidin-5-yloxy)picolinamide] | – | – | – | – | – | toxicology finding [7]: pronounced anemia
15 | Cc1cc(O[C@@H]2CCOC2)cc(C(=O)Nc2ccc(F)cn2)n1 [compound 11] | – | – | – | – | – | rat brain:plasma K p,uu [8]: 0.79; oral bioavailability (%F) [6]: 5.5%; predicted hepatic clearance in rat (CLhep) [9]: 51 mL/min/kg; IC50 (human mGlu5 [10]): 22 nM
16 | O=C(NCc1ccc(F)cn1)c1cc(Oc2cccnc2)c2sccc2n1 [compound 13] | – | – | – | – | – | M1 PAM (M1): > 30 µM
17 | CN1CC(=O)N=C1NC(=O)Nc1cccc(Cl)c1 [fenobam] | – | – | – | – | – | adverse effect in clinical trials [4]: psychosis-like symptoms
